Results taken from patent US5326882A, “Chemiluminescent 3-(substituted Adamant-2'-Ylidene) 1,2-dioxetanes” (Tropix, Inc., priority 1992, dated 1994).

Key:
[1] = molecular target: T1, alkaline phosphatase-labeled DNA probe (Bos taurus, UniProt P19111); test: Alkaline phosphatase-labeled DNA probe detection in membrane with and without BDMQ blocking step (Example XV); conditions: for Detection limit (in picograms DNA) 5. min. exp.: five minute exposure 40 minutes after dioxetane addition; for Detection limit (in picograms DNA) 1 min. exp.: one minute exposure 77 minutes after dioxetane addition
T1 construct: purchased Tropix, Inc
T1 sequence (P19111 20-506 limits assumed): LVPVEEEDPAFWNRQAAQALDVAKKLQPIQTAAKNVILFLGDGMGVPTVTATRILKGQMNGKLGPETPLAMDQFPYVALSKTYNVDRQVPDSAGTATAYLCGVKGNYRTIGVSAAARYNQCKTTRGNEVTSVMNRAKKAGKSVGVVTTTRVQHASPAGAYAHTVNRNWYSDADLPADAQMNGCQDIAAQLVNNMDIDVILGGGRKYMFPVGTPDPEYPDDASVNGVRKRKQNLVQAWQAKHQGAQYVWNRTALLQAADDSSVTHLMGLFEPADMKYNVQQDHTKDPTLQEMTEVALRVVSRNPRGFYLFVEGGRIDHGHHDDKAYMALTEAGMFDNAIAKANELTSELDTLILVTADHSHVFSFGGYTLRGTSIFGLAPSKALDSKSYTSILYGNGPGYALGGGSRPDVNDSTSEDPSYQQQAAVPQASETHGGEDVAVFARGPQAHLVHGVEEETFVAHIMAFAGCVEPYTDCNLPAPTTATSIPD
T1 sequence (P02701 25-152 partner): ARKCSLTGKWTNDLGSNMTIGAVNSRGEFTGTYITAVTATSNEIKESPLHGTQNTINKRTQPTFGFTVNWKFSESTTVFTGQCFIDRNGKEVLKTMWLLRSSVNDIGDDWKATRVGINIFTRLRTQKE
Experimental: pBr 322 plasmid (4700 bp) was subjected to a nick translation process using a Trans-Light kit (Tropix, Inc., Bedford, Mass.) to generate a mixture of biotinylated single stranded polynucleotides of 200-2000 bps in length.
This mixture was dotted onto a dry BIODYNE A membrane as five parallel columns of dots of the following concentrations:
The membrane was subjected to ultraviolet irradiation (UVP Mineral Light; UVP, San Gabriel, Calif.) for 3 minutes to fix the DNA to the surface of the membrane, then air dried. Next, the membrane was blocked in 0.2% casein/0.1% Tween 20 detergent in PBS for 1 hour, following which 1/5000 diluted avidin-alkaline phosphatase conjugate (Tropix, Inc.) in 0.2% casein in PBS was added. The membrane was then incubated for 30 minutes, washed three times (for 5 minutes each time) in 0.2% casein/0.1% Tween 20 detergent in PBS and washed once for five minutes in aqueous 0.1M diethanolamine containing 1 mm magnesium chloride and 0.02% sodium azide, pH 10.0 (substrate buffer).
Next, the five columns of rows of dots 1-5 were individually cut from the membrane ("strips 1-5"), as were the five columns of rows of dots 6-10 ("strips 6-10"). Strips 1-5 were washed with substrate buffer for 30 minutes. Strips 6-10 were blocked in 0.1% BDMQ in substrate buffer for 30 minutes. Both sets of strips were then incubated for 5 minutes in substrate buffer, then individually incubated for five minutes in aqueous solutions (0.25 mM) of 1,2-dioxetanes as indicated below:
All strips were then placed in camera luminometers and exposed on Polaroid Type 612 instant black and white film.

alkaline phosphatase = alkaline phosphatase (Bos taurus, UniProt P19111); test: Chemiluminescent signal and signal:background with enhancer polymers (Example XVII); format: biochemical
alkaline phosphatase, sequence (P19111 20-506 limits assumed): as the sequence (P19111 20-506 limits assumed) above
Experimental: Four sets of three tubes each, each tube in each set containing 450 μl of a 0.4 mM aqueous solution of one of the four 1,2-dioxetanes being compared in 0.1M diethanolamine containing 1 mM magnesium chloride, 0.02% sodium azide and 0.1% of the enhancer polymer, pH 10.0 (substrate buffer) were prepared and the background signal from each tube measured using a Berthold LB 952T luminometer (Berthold Instruments; Wildbad, Federal Republic of Germany).
Next, 50 μl of an aqueous solution, 2.83×10^-12 M of alkaline phosphatase in 0.1M diethanolamine containing 1 mM magnesium chloride, 0.02% sodium azide, pH 10.0, (final enzyme concentration 2.83×10^-13 M) was added to each tube and the chemiluminescent signals were measured in the luminometer at 5 and 20 minutes. The intensity of the chemiluminescent signals and the signal: background ratios obtained for each of the four 1,2-dioxetanes in the presence of the enhancer polymers are shown in Table III below.
The enhancer polymers used, and the symbols for such polymers used in Table III, were the following: […]

[2] = molecular target: T2, alkaline phosphatase (calf intestine; Biozyme) (Bos taurus, UniProt P19111); test: Total dephosphorylation, chemiluminescence decay (Example XIII); format: biochemical; conditions: 30° C., carbonate/bicarbonate buffer
T2 construct: purchased Biozyme; host or cells: calf intestine
T2 sequence (P19111 20-506 limits assumed): as above
Experimental: A comparison of the total luminescence emission from AMPPD and from the corresponding 1,2-dioxetanes whose adamant-2'-ylidene groups are monosubstituted with hydroxy (A and B isomers), chloro and bromo groups was made by carrying out total dephosphorylation experiments on each of these compounds.
An aqueous solution of the 1,2-dioxetane (4.0 mm) in 0.05M sodium carbonate/sodium bicarbonate containing 1 mM magnesium chloride was prepared and then equilibrated at 30° C. Ten μl of a 7.64×10M aqueous solution of alkaline phosphatase (calf intestine; Biozyme) was then added, and the chemiluminescence from the resulting solution was recorded using a Turner Model 20E luminometer (Turner Instruments; Sunnyvale, Calif.).
The rates of chemiluminescence decay for each of the five compounds in question, expressed in relative light units (RLU's) per minute, are given in the following table.

For COC1(c2cccc(OP(=O)(O)O)c2)OOC12C1CC3CC2CC(Cl)(C3)C1 (stereo not shown) [Cl-AMPPD, disodium 3-(4-methoxyspiro-[1,2-dioxetane-3,2'-(5'-chloro)tricyclo[3.3.1.1^3,7]decan]-4-yl) phenyl phosphate], the “Detection limit (in picograms DNA) 5. min. exp.” value ([1]; BDMQ blocking step) was 0.313 picograms DNA, the “Detection limit (in picograms DNA) 1 min. exp.” value ([1]; BDMQ blocking step) was 0.313 picograms DNA and the “Detection limit (in picograms DNA) 5. min. exp.” value ([1]; no BDMQ blocking step) was 1.250 picograms DNA. For the same molecule, the “Detection limit (in picograms DNA) 1 min. exp.” value ([1]; no BDMQ blocking step) was 1.250 picograms DNA, the S/N (alkaline phosphatase; polymer BAEDM, 5 min) was 102.2 and the SIGNAL (alkaline phosphatase; polymer BAEDM, 5 min) was 9086.9. For the same molecule, the S/N (alkaline phosphatase; polymer BAEDM, 20 min) was 193.3, the SIGNAL (alkaline phosphatase; polymer BAEDM, 20 min) was 17185.4 and the S/N (alkaline phosphatase; polymer BAEDM, time 0) was 1.0. The SIGNAL (alkaline phosphatase; polymer BAEDM, time 0 (background, before enzyme)) was 88.9, the S/N (alkaline phosphatase; polymer DAA TMQ, 5 min) was 125.1 and the SIGNAL (alkaline phosphatase; polymer DAA TMQ, 5 min) was 10328.7. For the same molecule, the S/N (alkaline phosphatase; polymer DAA TMQ, 20 min) was 159.9, the SIGNAL (alkaline phosphatase; polymer DAA TMQ, 20 min) was 13204.2 and the S/N (alkaline phosphatase; polymer DAA TMQ, time 0) was 1.0. For the same molecule, the SIGNAL (alkaline phosphatase; polymer DAA TMQ, time 0 (background, before enzyme)) was 82.6, the S/N (alkaline phosphatase; polymer DMQ TEQ, 5 min) was 514.6 and the SIGNAL (alkaline phosphatase; polymer DMQ TEQ, 5 min) was 39712.8. For the same molecule, the S/N (alkaline phosphatase; polymer DMQ TEQ, 20 min) was 747.2, the SIGNAL (alkaline phosphatase; polymer DMQ TEQ, 20 min) was 57658.0 and the S/N (alkaline phosphatase; polymer DMQ TEQ, time 0) was 1.0. It also gave an SIGNAL (alkaline phosphatase; polymer DMQ TEQ, time 0 (background, before enzyme)) of 77.2, an SIGNAL (alkaline phosphatase; polymer EMERALD (sapphire and fluorescein), time 0 (background, before enzyme)) of 3434.0 and a S/N (alkaline phosphatase; polymer EMERALD, 5 min) of 583.2. It also gave an SIGNAL (alkaline phosphatase; polymer EMERALD, 5 min) of 400510.8, a S/N (alkaline phosphatase; polymer EMERALD, 20 min) of 964.0 and an SIGNAL (alkaline phosphatase; polymer EMERALD, 20 min) of 662054.4. The S/N (alkaline phosphatase; polymer EMERALD, time 0) was 1.0, the S/N (alkaline phosphatase; polymer MPB, 5 min) was 257.8 and the SIGNAL (alkaline phosphatase; polymer MPB, 5 min) was 22170.5. It also gave a S/N (alkaline phosphatase; polymer MPB, 20 min) of 306.5, an SIGNAL (alkaline phosphatase; polymer MPB, 20 min) of 29133.9 and a S/N (alkaline phosphatase; polymer MPB, time 0) of 1.0. For the same molecule, the SIGNAL (alkaline phosphatase; polymer MPB, time 0 (background, before enzyme)) was 86.0, the S/N (alkaline phosphatase; polymer NONE, 5 min) was 47.9 and the SIGNAL (alkaline phosphatase; polymer NONE, 5 min, enzyme 2.83×10^-13 M) was 4083.6. The S/N (alkaline phosphatase; polymer NONE, 20 min) was 52.3, the SIGNAL (alkaline phosphatase; polymer NONE, 20 min, enzyme 2.83×10^-13 M) was 4460.9 and the S/N (alkaline phosphatase; polymer NONE, time 0) was 1.0. It also gave an SIGNAL (alkaline phosphatase; polymer NONE, time 0 (background, before enzyme)) of 85.3, a S/N (alkaline phosphatase; polymer S/TMQ(1:2), 5 min) of 46.7 and an SIGNAL (alkaline phosphatase; polymer S/TMQ(1:2), 5 min) of 3121.4. It also gave a S/N (alkaline phosphatase; polymer S/TMQ(1:2), 20 min) of 100.2, an SIGNAL (alkaline phosphatase; polymer S/TMQ(1:2), 20 min) of 6696.9 and a S/N (alkaline phosphatase; polymer S/TMQ(1:2), time 0) of 1.0. For the same molecule, the SIGNAL (alkaline phosphatase; polymer S/TMQ(1:2), time 0 (background, before enzyme)) was 66.8, the S/N (alkaline phosphatase; polymer S/TMQ(1:4), 5 min) was 93.9 and the SIGNAL (alkaline phosphatase; polymer S/TMQ(1:4), 5 min) was 5631.2. The S/N (alkaline phosphatase; polymer S/TMQ(1:4), 20 min) was 165.0, the SIGNAL (alkaline phosphatase; polymer S/TMQ(1:4), 20 min) was 9957.4 and the S/N (alkaline phosphatase; polymer S/TMQ(1:4), time 0) was 1.0. It also gave an SIGNAL (alkaline phosphatase; polymer S/TMQ(1:4), time 0 (background, before enzyme)) of 60.0, an SIGNAL (alkaline phosphatase; polymer SAPPHIRE (BDMQ), time 0 (background, before enzyme)) of 296.0 and a S/N (alkaline phosphatase; polymer SAPPHIRE, 5 min) of 371.6. It also gave an SIGNAL (alkaline phosphatase; polymer SAPPHIRE, 5 min) of 51584.5, a S/N (alkaline phosphatase; polymer SAPPHIRE, 20 min) of 505.4 and an SIGNAL (alkaline phosphatase; polymer SAPPHIRE, 20 min) of 70161.6. For the same molecule, the S/N (alkaline phosphatase; polymer SAPPHIRE, time 0) was 1.0, the SIGNAL (alkaline phosphatase; polymer TBQ-FLUOR (TBQ and fluorescein), time 0 (background, before enzyme)) was 5882.7 and the S/N (alkaline phosphatase; polymer TBQ-FLUOR, 5 min) was 839.4. The SIGNAL (alkaline phosphatase; polymer TBQ-FLUOR, 5 min) was 987572.0, the S/N (alkaline phosphatase; polymer TBQ-FLUOR, 20 min) was 1280.0 and the SIGNAL (alkaline phosphatase; polymer TBQ-FLUOR, 20 min) was 1505971.2. It also gave a S/N (alkaline phosphatase; polymer TBQ-FLUOR, time 0) of 1.0, a S/N (alkaline phosphatase; polymer TBQ, 5 min) of 1249.6 and an SIGNAL (alkaline phosphatase; polymer TBQ, 5 min) of 148394.6. It also gave a S/N (alkaline phosphatase; polymer TBQ, 20 min) of 1763.9, an SIGNAL (alkaline phosphatase; polymer TBQ, 20 min) of 209466.8 and a S/N (alkaline phosphatase; polymer TBQ, time 0) of 1.0. It also gave an SIGNAL (alkaline phosphatase; polymer TBQ, time 0 (background, before enzyme)) of 118.8, a S/N (alkaline phosphatase; polymer TEQ, 5 min) of 397.0 and an SIGNAL (alkaline phosphatase; polymer TEQ, 5 min) of 26551.0. It also gave a S/N (alkaline phosphatase; polymer TEQ, 20 min) of 513.5, an SIGNAL (alkaline phosphatase; polymer TEQ, 20 min) of 34467.2 and a S/N (alkaline phosphatase; polymer TEQ, time 0) of 1.0. For the same molecule, the SIGNAL (alkaline phosphatase; polymer TEQ, time 0 (background, before enzyme)) was 67.1, the S/N (alkaline phosphatase; polymer TMQ, 5 min) was 165.0 and the SIGNAL (alkaline phosphatase; polymer TMQ, 5 min) was 9941.0. It also gave a S/N (alkaline phosphatase; polymer TMQ, 20 min) of 226.4, an SIGNAL (alkaline phosphatase; polymer TMQ, 20 min) of 13640.5 and a S/N (alkaline phosphatase; polymer TMQ, time 0) of 1.0. For the same molecule, the SIGNAL (alkaline phosphatase; polymer TMQ, time 0 (background, before enzyme)) was 50.3, the “Total Decay Time” value [2] was 15 min and the “Decay Rate I” value ([2]; RLU's per minute) was 1.2 RLU's per minute. For the same molecule, the “Decay Rate II” value ([2]; RLU's per minute) was 5.5 RLU's per minute.
